Tests used:
Format in all cases: cell-based, mouse
CD8+ T cells [1] = assay: IFNγ ELISPOT, ZIKV-infected Ifnar-/- HLA-B*0702 transgenic mice; settings: HLA-B*0702 mice; for SFC/10^6 CD8+ T cells, FSS13025: 7 days after 1×10^2 FFU ZIKV FSS13025; for SFC/10^6 CD8+ T cells, MR766: 7 days after 1×10^2 FFU ZIKV MR766; for immunodominance in IFNγ ELISPOT: immunodominant: >500 SFCs/10^6 CD8+ T cells, shared by both ZIKV strains
In short: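 Mice were infected retro-orbitally with 1×10^2 FFU ZIKV (FSS13025 or MR766), and splenic CD8+ T cells were isolated 7 days later. 2×10^5 cells were stimulated 20 h with 1×10^5 LPS-blasts loaded with 10 μg peptide, in triplicate. Output is SFC/10^6 CD8+ T cells; positive if net >20 and stimulation index >2.0.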

CD8+ T cells [2] = assay: IFNγ ELISPOT, DENV2 S221-infected Ifnar-/- HLA-B*0702 transgenic mice; settings: HLA-B*0702 mice, 7 days after 2×10^4 FFU DENV2 S221
Method: (§1) Two ZIKV strains, MR766 (Uganda, 1947) and FSS13025 (Cambodia, 2010), were obtained from the World Reference Center for Emerging Viruses and Arboviruses (WRCEVA). The mouse-adapted DENV2 strain S221 is a triple-plaque purified clone derived from DENV2 D2S1038. Both ZIKV and DENV2 were amplified in C6/36 mosquito cells, and viral titers were measured using baby hamster kidney (BHK)-21 cell-based focus forming assay (FFA). For epitope screening, 5-week old mice (female or male) were infected retro-orbitally (R.O.) with either 1×102 FFU of ZIKV FSS13025 or ZIKV MR766, or 2×10^4 FFU of DENV2 S221 in 200 μl 10% FBS/PBS. Seven days after infection, CD8^+ T cells were isolated from splenocytes and used for ELISPOT assay, while the splenocytes were directly used for ICS assay. Additionally, 5-week old mice were inoculated I.P. with 2×10^3 FFU of DENV2 S221 for 4 weeks.
CD8^+ T cells were isolated from splenocytes using magnetic bead positive selection (Miltenyi Biotec, Germany) 7 days after virus infection. 2×10^5 CD8^+ T cells were stimulated with 1×10^5 LPS-blasts loaded with 10 μg of individual peptide in 96-well flat-bottom plates (IMMOBILON™-P; Millipore, Bedford, Mass.) that were coated with anti-IFNγ mAb (clone AN18; Mabtech, Stockholm, Sweden) in triplicate. Concanavalin A (ConA) was used as positive control. After 20 hours of incubation, biotinylated anti-mouse IFNγ mAb (R4-6A2; Mabtech), followed by ABC peroxidase (Vector Laboratories, Burlingame, Calif., USA) and then 3-amino-9-ethylcarbazole (Sigma-Aldrich, St. Louis, Mo., USA) were added into the wells. […] A peptide inducing a magnitude of >500 SFCs/10^6 CD8^+ T cells was considered as an immunodominant peptide.
(§2) The following results are with respect to FIG. 14A and FIG. 14B, where Ifnar^−/− HLA-B*0702 transgenic mice were infected R.O. with 2×10^4 FFU of DENV2 strain S221 for 7 days. CD8^+ T cells isolated from splenocytes were stimulated with each of the 37 ZIKV epitopes identified via IFNγELISPOT to perform (FIG. 14A) IFNγELISPOT and (FIG. 14B) ICS assay. Data represent the average of two independent IFNγELISPOT experiments and two independent ICS experiments (n=7 mice) and are expressed as mean±SEM. Dotted line corresponds to the cutoff value. *, P<0.05.

CD8+ T cells [3] = assay: IFNγ ICS, DENV2 S221-infected Ifnar-/- HLA-B*0702 transgenic mice; settings: HLA-B*0702 mice; for % IFNγ+ CD8+ T cells, S221: 7 days after DENV2 S221, ICS; for ZIKV/DENV cross-reactivity in DENV2-infected mice (IFNγ ELISPOT and IFNγ ICS): DENV2 S221, 7 days
Method: as §1
Spleens were harvested from virus-infected, mock-immunized, or peptide-immunized mice. 1×10^6 splenocytes were plated in each well of 96-well U-bottom plates and stimulated with individual peptide (10 μg crude peptide or 1 μg pure peptide per well) for 6 hours. Five hours before the end of incubation, Brefeldin A (GolgiPlug; BD Biosciences) and PE-conjugated anti CD107a mAb (clone 1D4B, eBioscience) were added to the cells. Splenocytes stimulated with PMA-ionomycin were used as the positive control, while cells without any stimulation were the negative control. […] Samples were run using an LSR™ II (BD Biosciences) and analyzed using FLOWJO™ software X 10.0.7 (Tree Star, Ashland, Oreg.).
as §2

CD8+ T cells [4] = assay: ICS, DENV2-immune Ifnar-/- HLA-B*0702 mice challenged with ZIKV FSS13025; settings: day 3 after ZIKV FSS13025 challenge
Method: as §1
Spleens were harvested from virus-infected, mock-immunized, or peptide-immunized mice. 1×10^6 splenocytes were plated in each well of 96-well U-bottom plates and stimulated with individual peptide (10 μg crude peptide or 1 μg pure peptide per well) for 6 hours. Five hours before the end of incubation, Brefeldin A (GolgiPlug; BD Biosciences) and PE-conjugated anti CD107a mAb (clone 1D4B, eBioscience) were added to the cells. Splenocytes stimulated with PMA-ionomycin were used as the positive control, while cells without any stimulation were the negative control. After incubation, cells were first stained with PERCPCY™ 5.5-conjugated anti-CD3 mAb (Clone 145-2C11, TONBO), PE-CY7™-conjugated anti-CD8 mAb (clone 53-67, BD Biosciences), EFLUOR™ 450-conjugated anti-CD44 mAb (clone IM7, eBioscience), and APC eFluor 780-conjugated anti-CD62L mAb (clone Mel-14, eBioscience). Cells were then fixed and permeabilized using CYTOFIX/CYTOPERM™ solution (BD Biosciences), followed by staining with FITC-conjugated anti-IFNγ mAb (clone XMG 1.2, TONBO) and APC-conjugated anti-TNFα mAb (clone MP6-XT22, eBioscience). Samples were run using an LSR™ II (BD Biosciences) and analyzed using FLOWJO™ software X 10.0.7 (Tree Star, Ashland, Oreg.).
The following results are with respect to FIG. 11 to FIG. 11E, where Ifnar^−/− HLA-B*0702 transgenic mice were inoculated I.P. with 2×10^3 FFU of DENV2 strain S221 for 4 weeks. Naive mice (n=5) and DENV2 strain S221-immune mice (n=5) were challenged R.O. with 1×10^4 FU of ZIKV FSS13025 for three days, and the percentages of peptide-specific IFNγ^+ and/or TNFα^+ CD8^+ T cells were detected by ICS (FIG. 11A and FIG. 11B). […] Data were expressed as mean±SEM. *, P<0.05; **, P<0.01; Two-tailed ann-Whitney test. Black “*” indicates ZIKV-specific response while bold “*” represents ZIKV/DENV cross-reactive response. All positive peptides were grouped according the ZIKV specificity of immune response (FIG. 11E). Numbers in parentheses indicate the number of positive peptides in this group.

Row | Sequence | SFC/10^6 CD8+ T cells, FSS13025 (CD8+ T cells [1]) [SFC/10^6 CD8+ T cells] | SFC/10^6 CD8+ T cells, MR766 (CD8+ T cells [1]) [SFC/10^6 CD8+ T cells] | immunodominance in IFNγ ELISPOT (CD8+ T cells [1]) | SFC/10^6 CD8+ T cells, S221 (CD8+ T cells [2]) [SFC/10^6 CD8+ T cells] | % IFNγ+ CD8+ T cells, S221 (CD8+ T cells [3]) | ZIKV/DENV cross-reactivity in DENV2-infected mice (IFNγ ELISPOT and IFNγ ICS) (CD8+ T cells [3]) | IFNγ and TNFα double-positive epitope-specific CD8+ T cells (CD8+ T cells [4]) | percentage of epitope-specific IFNγ-producing CD8+ T cells (CD8+ T cells [4]) [%]
1 | KPRWMDARV [FSS/MR-NS3574-582] | 969 | 1095 | immunodominant | 350 | (0.63%) | positive in both IFNγ ELISPOT and IFNγICS assays | double-positive with expression of both IFNγ and TNFα | 2.61±1.19
2 | RPALLVSFIF [FSS/MR-NS2A75-84] | 713 | 582 | immunodominant | 88 | (0.58%) | positive in both IFNγ ELISPOT and IFNγICS assays | double-positive with expression of both IFNγ and TNFα | 0.44±0.24

Source: patent US11806393B2, “Flavivirus peptide sequences, epitopes, and methods and uses thereof” (priority 2017, dated 2023)
